In patent publication US4200650A, “2-Amino-cyclopent-1-ene-1-thiocarboxylic acid-disulfides to treat noradrenergic malfunctions” (Richter Gedeon Vegyeszeti Gyar Rt., priority 1976, dated 1980):

How the values were obtained:
dopamine-β-hydroxylase [1] = assay: Determination of the noradrenaline content of heart; assay type: in vivo, male Wistar rats; details: i.p.
Description: (§1) The dopamine-β-hydroxylase inhibiting effects of the new compounds according to the invention were examined by the following tests:
(§2) The tests were performed on male Wistar rats weighing 150 to 200 g. The dopamine-β-hydroxylase inhibiting effects of the compounds were evaluated by determining the change of noradrenaline, dopamine and adrenaline levels of the cerebrum, heart, spleen and adrenal gland. The serotonine and 5-hydroxy-indolylacetic acid levels of the cerebrum were also determined. The measurements were performed as follows:
(§3) The animals were decapitated, the cerebrum, heart, spleen and adrenal gland were removed quickly, and the organs were frozen by placing them onto a metal sheet cooled with dry ice. The frozen organs were stored for maximum one night at -20° C.
(§4) Determination of the noradrenaline content of heart and spleen
(§5) The organs were weighed in frozen state and then homogenized in 5.0 ml of 0.4 n perchloric acid containing 0.05% of EDTA-Naa and 0.1% of Na2 S2 O5. The homogenized mixtures were centrifuged as described above for the treatment of adrenal gland, the supernatants were decanted, and the pH was adjusted to 8.0±0.1 with a 0.1 molar tris buffer containing 20 g/l of NaOH and 25 g/l of EDTA-Na2. 100 mg of prepared Al2 O3 (Anton et al.: J. Pharm. Ther. 138, 360/1962/) were added to the samples, and the mixtures were shaken mechanically for 20 minutes. Thereafter Al2 O3 was washed with 2×10 ml of distilled water, and noradrenaline was eluted with 1.0 ml of 0.05 n perchloric acid. 0.5 ml samples of the eluate were applied for the determination of noradrenaline. Noradrenaline was determined according to the method of Shellenberger et al. (Anal. Biochem. 39, 356/1971/), with the following modifications of the basic procedure: 0.5 ml of 0.1 molar Na-K-phosphate buffer, containing 9 g/l of EDTA-Na2, were added to 0.5 ml of the eluate, and the catecholamines (noradrenaline in the examination of heart and spleen and noradrenaline and dopamine in the examination of the cerebrum) were oxidized with 0.1 ml of a 0.1 n iodine solution in 5% potassium iodide. After exactly 2 minutes oxidation was stopped by adding 0.25 ml of a 2.5% sodium sulfite solution in 4.4 n aqueous sodium hydroxide to the mixture. 2 minutes after the introduction of the alkaline sulfite solution 0.2 ml of concentrated acetic acid were added to the samples, upon which the pH decreased to 4.4 to 4.5 Thereafter the samples were placed for 5 minutes into a drying oven heated to 100° C., and then the samples were cooled with ice water. The fluorescency of noradrenaline was measured with an OPTON spectrophotometer at wavelengths of 380 nm (excitation) and 490 nm (emission).
(§6) In the tests disulfiram, 2,2-dipyridyl, bis(1-methyl-4-homopiperazinyl-thriocaronyl)-disulfide, sodium diethyldithiocarbamate and N-phenyl-N'-(2-thiazolyl)-thiourea were applied as reference substances. The values indicated in Table 1 are the percentages in relation to the amine levels of the controls measured in the same tests (± standard error). The statistical calculations were performed on a TPA/i type computer, using Student's t test.

dopamine-β-hydroxylase [2] = details: literature, cited from earlier work
dopamine-β-hydroxylase [3] = assay: Determination of noradrenaline and dopamine levels of brain (dopamine-β-hydroxylase inhibiting effect); assay type: in vivo, male Wistar rats; details: i.p.
Description: as §1, §2, §3
(§7) Determination of the noradrenaline, dopamine, serotonine and 5-hydroxy-indolylacetic acid contents of brain
The brains were homogenized in 10 parts by volume of 0.4 n perchloric acid. The homogenized mixture was stored at -20° C. overnight, thereafter it was thawed and centrifuged as described above. A sample of the homogenized mixture corresponding to 0.5 g of brain was removed, the pH of the sample was adjusted to 8.0±0.1 with 0.1 molar tris-buffer of the above composition, and the sample was processed as described above for the determination of the noradrenaline content of heart and spleen, with the difference that 1.5 ml of 0.05 n perchloric acid were applied as eluting agent. 0.5 ml of the eluate were applied to determine the noradrenaline and dopamine contents. The measurement was performed as described above, with the difference that samples of 0.5 ml were applied for the recording of the fluorescency of noradrenaline. The residua was placed for 50 minutes into a drying oven heated to 100° C., thereafter the sample was cooled with ice water, and the fluorescency of dopamine was recorded at wavelengths of 325 nm (excitation) and 380 nm (emission).
(§8) In a further test series the serotonine and 5-hydroxy-indolylacetic acid contents were also determined, beside the determination of the noradrenaline and dopamine content, from the same sample. In this instance the brains were homogenized in 10 ml of 75% ethanol, 0.2 ml of EDTA-Na2 and 5% of ascorbic acid were added to the homogenized mixtures, and the homogenized mixtures were maintained at -20° C. overnight. The mixtures were centrifuged as described above, and 5.0 ml samples of the supernatant were removed. The samples were diluted with equal volumes of distilled water, and poured onto ion exchange columns of 0.5×1.5 cm dimensions, filled with buffered Amberlite CG-30 (200 to 400 mesh). The columns were washed with 5 ml of distilled water followed by 1.0 ml of 0.2 n hydrochloric acid, and the first effluent and the aqueous wash were collected for the determination of 5-hydroxy-indolylacetic acid. Elution was continued with further 1.2 ml of 0.2 n hydrochloric acid in order to remove noradrenaline, dopamine and serotonine. Samples of 0.3 ml were used for the determinations.
(§9) Noradrenaline and dopamine were determined by the method of Shellenberger, modified as described above, whereas serotonine was determined by the method of Curzon et al. (Brit. J. Pharmacol. 39, 653/1970/). The basic method was modified as follows: A 0.5% solution of ortho-phthal(di)aldehyde in absolute ethanol was diluted with 10 n hydrochloric acid to 50-fold of its original volume, and 0.6 ml of the resulting 0.01% ortho-phthal(di)aldehyde solution were added immediately to 0.5 ml of the serotonine-containing sample. The sample was placed into a hot water bath for 10 minutes, thereafter cooled with tap water, and the fluorescency was recorded at wavelengths of 360 nm (excitation) and 490 nm (emission).
In the tests disulfiram, 2,2-dipyridyl, bis(1-methyl-4-homopiperazinyl-thriocaronyl)-disulfide, sodium diethyldithiocarbamate and N-phenyl-N'-(2-thiazolyl)-thiourea were applied as reference substances. […]

[4] = system: serotonine and 5-hydroxy-indolylacetic acid levels of the cerebrum; assay: Determination of serotonine and 5-hydroxy-indolylacetic acid levels of brain; assay type: in vivo, male Wistar rats
Description: as §2, §3, §7, §8, §9
5-Hydroxy-indolylacetic acid was determined from the mixture of the first effluent and the aqueous wash. 10 ml of distilled water and 0.2 ml of concentrated hydrochloric acid were added to the mixture, and the sample was poured onto a 0.8×4.0 cm column filled with Sephadex G-10. The column was washed with 15 ml of 0.1 n hydrochloric acid followed by 1.8 to 2.0 ml of 0.02 n aqueous ammonia, and then 5-hydroxyindolylacetic acid was eluted with further 2.0 ml of aqueous ammonia. 0.5 ml samples were used in the measurements, and the determination was performed according to the method of Korf et al. (Biochem. Pharmacol. 20, 659/1971/).
as §6

dopamine-β-hydroxylase [5] = assay: Determination of the noradrenaline content of spleen; assay type: in vivo, male Wistar rats; details: i.p.
Description: as §1, §2, §3, §4, §5, §6

dopamine-β-hydroxylase [6] = assay: Determination of the adrenaline content of adrenal gland; assay type: in vivo, male Wistar rats; details: i.p.
Description: as §1, §2, §3
Determination of the adrenaline content of adrenal gland
The adrenal glands were freed from fat and homogenized in 3.0 ml of ice-cold 0.4 n perchloric acid. The homogenized mixtures were centrifuged for 10 minutes at 0° C. with a speed of 3200 r.p.m. using a Janetzky K-70 type centrifuge. 0.05 ml samples were taken from the supernatant, and the adrenaline level was determined directly by the method of Laverty et al. (Anal. Biochem. 22, 269/1968/).
as §6

[7] = 100 mg/kg, 4 hours, ± standard error
[8] = 200 mg/kg, 4 hours, ± standard error
[9] = 200 mg/kg, 8 hours, ± standard error
[10] = i.p., 200 mg/kg, 4 hours, ± standard error

## c1ccc(-c2ccccn2)nc1 [2,2-D, 2,2-dipyridyl, reference compound]
dopamine-β-hydroxylase [1]; 37.5 mg/kg, 4 hours
  Heart NA (noradrenaline) level, percentages in relation to the controls: 104%
dopamine-β-hydroxylase [1]; 75 mg/kg, 4 hours
  Heart NA (noradrenaline) level, percentages in relation to the controls: 58%
dopamine-β-hydroxylase [2]; in vitro
  dopamine-β-hydroxylase inhibition under in vitro conditions, in words: effective under in vitro conditions
dopamine-β-hydroxylase [3]; 37.5 mg/kg, 4 hours
  Brain DA (dopamine) level, percentages in relation to the controls: 116%
  Brain NA (noradrenaline) level, percentages in relation to the controls: 79.5%
dopamine-β-hydroxylase [3]; 75 mg/kg, 4 hours
  Brain DA (dopamine) level, percentages in relation to the controls: 95%
  Brain NA (noradrenaline) level, percentages in relation to the controls: 41.2%
[4]; i.p., 75 mg/kg, 4 hours
  Brain SE (serotonine) level, percentages in relation to the controls: 100%
dopamine-β-hydroxylase [5]; 37.5 mg/kg, 4 hours
  Spleen NA (noradrenaline) level, percentages in relation to the controls: 100%
dopamine-β-hydroxylase [6]; 37.5 mg/kg, 4 hours
  Adrenal gland AD (adrenaline) level, percentages in relation to the controls: 80%
dopamine-β-hydroxylase [6]; 75 mg/kg, 4 hours
  Adrenal gland AD (adrenaline) level, percentages in relation to the controls: 63%

## CCCCNC1=C(C(=S)SSC(=S)C2=C(NCCCC)CCC2)CCC1 [Compound M-2, 2-(N-butyl)-amino-cyclopent-1-ene-thiocarboxylic aciddisulfide]
dopamine-β-hydroxylase [1]; [7]
  Heart NA (noradrenaline) level, percentages in relation to the controls: 91.5±5.2%
dopamine-β-hydroxylase [1]; [8]
  Heart NA (noradrenaline) level, percentages in relation to the controls: 108.5±9.4%
dopamine-β-hydroxylase [1]; [9]
  Heart NA (noradrenaline) level, percentages in relation to the controls: 91.7±4.6%
dopamine-β-hydroxylase [3]; [7]
  Brain DA (dopamine) level, percentages in relation to the controls: 118.3±5.7%
  Brain NA (noradrenaline) level, percentages in relation to the controls: 80.1±4.3%
dopamine-β-hydroxylase [3]; [8]
  Brain DA (dopamine) level, percentages in relation to the controls: 94.2±7.5%
  Brain NA (noradrenaline) level, percentages in relation to the controls: 70.9±5.2%
dopamine-β-hydroxylase [3]; [9]
  Brain DA (dopamine) level, percentages in relation to the controls: 91.0±12.7%
  Brain NA (noradrenaline) level, percentages in relation to the controls: 81.6±7.3%
[4]; Rattus norvegicus, ip, 200 mg/kg, 8 hours, ± standard error, read-out: Brain 5-HIAA (5-hydroxy-indolylacetic acid) level, percentages in relation to the controls
  response vs control in vivo at 200 mg/kg: 126 ± 7.1%
dopamine-β-hydroxylase [5]; [8]
  Spleen NA (noradrenaline) level, percentages in relation to the controls: 114.5±28.2%
dopamine-β-hydroxylase [5]; [9]
  Spleen NA (noradrenaline) level, percentages in relation to the controls: 96.4±23.1%
dopamine-β-hydroxylase [6]; [7]
  Adrenal gland AD (adrenaline) level, percentages in relation to the controls: 81.0±8.5%
dopamine-β-hydroxylase [6]; [8]
  Adrenal gland AD (adrenaline) level, percentages in relation to the controls: 91.7±4.3%
dopamine-β-hydroxylase [6]; [9]
  Adrenal gland AD (adrenaline) level, percentages in relation to the controls: 87.7±4.2%

## S=C(Nc1ccccc1)Nc1nccs1 [Compound U-14624, N-phenyl-N'-(2-thiazolyl)-thiourea, reference compound]
dopamine-β-hydroxylase [1]; [8]
  Heart NA (noradrenaline) level, percentages in relation to the controls: 106%
dopamine-β-hydroxylase [3]; [8]
  Brain DA (dopamine) level, percentages in relation to the controls: 121%
  Brain NA (noradrenaline) level, percentages in relation to the controls: 31.6%
[4]; [10]
  Brain 5-HIAA (5-hydroxy-indolylacetic acid) level, percentages in relation to the controls: 175%
  Brain SE (serotonine) level, percentages in relation to the controls: 137%
dopamine-β-hydroxylase [5]; [8]
  Spleen NA (noradrenaline) level, percentages in relation to the controls: 111%
dopamine-β-hydroxylase [6]; [8]
  Adrenal gland AD (adrenaline) level, percentages in relation to the controls: 72%

## CCN(CC)C(=S)SSC(=S)N(CC)CC [DS, bis(diethylthiocarbamoyl)-disulfide, reference compound]
dopamine-β-hydroxylase [1]; [8]
  Heart NA (noradrenaline) level, percentages in relation to the controls: 98%
dopamine-β-hydroxylase [1]; 400 mg/kg, 4 hours
  Heart NA (noradrenaline) level, percentages in relation to the controls: 102%
dopamine-β-hydroxylase [2]
  dopamine-β-hydroxylase inhibiting effects, in words: strong dopamine-β-hydroxylase inhibiting effects
dopamine-β-hydroxylase [3]; [8]
  Brain DA (dopamine) level, percentages in relation to the controls: 111%
  Brain NA (noradrenaline) level, percentages in relation to the controls: 22.5%
dopamine-β-hydroxylase [3]; 400 mg/kg, 4 hours
  Brain DA (dopamine) level, percentages in relation to the controls: 112%
  Brain NA (noradrenaline) level, percentages in relation to the controls: 24.1%
[4]; [10]
  Brain SE (serotonine) level, percentages in relation to the controls: 122%
[4]; i.p., 400 mg/kg, 4 hours
  Brain SE (serotonine) level, percentages in relation to the controls: 117%
dopamine-β-hydroxylase [6]; [8]
  Adrenal gland AD (adrenaline) level, percentages in relation to the controls: 52%
dopamine-β-hydroxylase [6]; 400 mg/kg, 4 hours
  Adrenal gland AD (adrenaline) level, percentages in relation to the controls: 66%
